“And” between values parts separate entries of the source, which are not always exact repeats. Identical values can stand only once. “Also recorded” adds a separate entry of the source. Like-named read-outs stand apart in the source and are kept apart here.
How the values were obtained:
[1] = test system: mouse T lymphocytes stimulated with ionomycin plus PMA; experiment: T-cell proliferation assay (ionomycin plus PMA induced T-cell stimulation); type: cell-based
Experimental: The principle of this assay, as described in J. Immunology, Vol. 144, pp. 251-258 (1990) by F. Dumont et al, is to measure the proliferation of mouse T lymphocytes stimulated with the combination of ionomycin plus PMA. A positive sample e.g. FK-506, in this assay will inhibit T-cell proliferation, as indicated by reduced tritiated thymidine uptake.
Purified Compound I, as prepared by HPLC above, was dissolved in absolute ethanol at 1 mg/ml.
Spleens from C57B1/6 mice were taken under sterile conditions and gently dissociated in ice-cold RPMI 1640 culture medium (GIBCO, Grand Island, N.Y.) supplemented with 10% heat-inactivated fetal calf serum (GIBCO). Cells were pelleted by centrifugation at 1500 rpm for 8 minutes. Contaminating red cells were removed by treating the pellet with ammonium chloride lysing buffer (GIBCO) for 2 minutes at 4° C. Cold medium was added and cells were again centrifuged at 1500 rpm for 8 minutes. T lymphocytes were then isolated by separation of the cell suspension on nylon wool columns as follows: Nylon wool columns were prepared by packing approximately 4 grams of washed and dried nylon wool into 20 ml plastic syringes. The columns were sterilized by autoclaving at 250° F. for 30 minutes. Nylon wool columns were wetted with warm (37° C.) culture medium and rinsed with the same medium. Washed spleen cells resuspended in warm medium were slowly applied to the nylon wool. The columns were then incubated in an upright position at 37° C. for 1 hour. Non-adherent T lymphocytes were eluted from the columns with warm culture medium and the cell suspensions were spun as above.
Purified T lymphocytes were resuspended at 2.5×10^5 cells/ml in complete culture medium composed of RPMI 1640 medium with 10% heat-inactivated fetal calf serum, […], 1 mM sodium pyruvate, 2×10^-5 M 2-mercaptoethanol and 50 μg/ml gentamycin. Ionomycin was added at 250 ng/ml and PMA at 10 ng/ml. The cell suspension was immediately distributed into 96 well flat-bottom microculture plates (Costar) at 200 μl/well. The control, being the medium without test drug, and various below-indicated dilutions of the sample (above-describedpurified Compound I) to be tested were then added in triplicate wells at 20 μl/well. FR-900506 was used as a standard. The culture plates were then incubated at 37° C. in a humidified atmosphere of 5% CO2 -95% air for 44 hours. The proliferation of T lymphocytes was assessed by measurement of tritiated thymidine incorporation. After 44 hours of culturing, the cells were pulse-labelled with 2 μCi/well of tritiated thymidine (NEN, Cambridge, Mass.). After another 4 hours of incubation, cultures were harvested on glass fiber filters using a multiple sample harvester. Radioactivity of filter discs corresponding to individual wells was measured by standard liquid scintillation counting methods (Betacounter). Mean counts per minute of replicate wells were calculated and the results expressed as percent inhibition of tritiated thymidine uptake (proliferation) as follows: [formula]
1. Mouse T cell cultures were pulsed with ^3 H-thymidine for 4 hours prior to harvesting at 48 hours.

[2] = reputed, EPO Publication No. 0184162; cited from earlier work
[3] = molecular target: T1, 31-O-desmethylimmunomycin O-methyltransferase (DIMT) (Streptomyces hygroscopicus, UniProt Q9KID5); experiment: S-adenosyl-L-methionine:31-O-desmethylimmunomycin O-methyltransferase (DIMT) assay; type: biochemical, Streptomyces hygroscopicus var. ascomyceticus; conditions: for inhibition of DIMT activity: result in words
T1 construct: about 32 kDa; monomer by gel filtration
T1 sequence (Q9KID5 1-260): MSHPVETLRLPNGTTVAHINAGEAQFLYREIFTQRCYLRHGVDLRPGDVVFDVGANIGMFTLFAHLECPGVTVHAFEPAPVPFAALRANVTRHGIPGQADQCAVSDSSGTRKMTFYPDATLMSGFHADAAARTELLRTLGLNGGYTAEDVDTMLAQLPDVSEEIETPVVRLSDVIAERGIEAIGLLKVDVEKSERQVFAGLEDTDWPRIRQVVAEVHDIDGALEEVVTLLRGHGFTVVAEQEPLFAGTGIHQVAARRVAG
Experimental: The assay was carried out in 1 ml. mixture containing 0.025 mM 31-desmethylimmunomycin, 1 mM MgSO4 and different quantities of the enzyme source in 50 mM phosphate buffer, pH 7.5. Reaction was initiated by the addition of 1 nmole of ^14 C-SAM (S-adenosyl-L-[methyl-^14 C] methionine with the specific activity of 46 mCi/mmole. Incubation of the complete mixture was carried out at 34° C. for 20 minutes and the reaction was terminated by the addition of ethyl acetate. Product of the reaction was extracted with 2 ml of ethyl acetate and 1 ml of the extract was used for TLC and HPLC analysis. For the analysis of the radioactive reaction product (immunomycin), the ethyl acetate extract was spiked with the standard immunomycin and subjected to the TLC with a plate having plastic support. The plastic sheet was developed in chloroform:methanol (9:1) and area showing standard immunomycin under UV-light was cut and the radioactivity in the cut-strip was measured. The amount of the product formed was calculated from the measured radioactivity. For the HPLC analysis of the product of the enzyme reaction, several enzymatic reaction mixtures were pooled and the extract was subjected to the TLC analysis as above. The area on the silica gel plate showing the band having an Rf value identical with the standard immunomycin was scraped and eluted with ethyl acetate. The ethyl acetate extract was washed with water, dried under nitrogen and the residue was subjected to the HPLC analysis on Partisil 5-ODS-3 column with acetonitrile:water:phosphoric acid (65:35:0.1) as the eluting solvent. One milliliter fractions were collected and a portion of each fraction was examined for the radioactivity.
Examination of the optimal temperature, pH and metal requirement of the DIMT activity was carried out on the enzyme preparation obtained from DEAE-Sepharose column. For kinetic analysis, a preparation which had been purified through a second MonoQ column chromatography was utilized.

[4] = Physical characteristics of Compound I; type: physicochemical; conditions: methanol
[5] = Mus musculus, T-lymphocyte, Example 3, HPLC purified samples, same set of experiments, read-out: IC50, biological activity

C=CC[C@@H]1/C=C(\C)C[C@H](C)C[C@H](OC)[C@H]2O[C@@](O)(C(=O)C(=O)N3CCCC[C@H]3C(=O)O[C@H](/C(C)=C/[C@@H]3CC[C@@H](O)[C@H](OC)C3)[C@H](C)[C@@H](O)CC1=O)[C@H](C)C[C@@H]2OC [FR-900506, reference compound]
inhibition at 0.01 µg/mL ([1]; Mus musculus, T-lymphocyte, read-out: inhibition of T-cell proliferation by the standard): 99% | times more effective than cyclosporin [2]: 100 times

CC[C@@H]1/C=C(\C)C[C@H](C)C[C@H](OC)[C@H]2O[C@@](O)(C(=O)C(=O)N3CCCC[C@H]3C(=O)O[C@H](/C(C)=C/[C@@H]3CC[C@@H](O)[C@H](O)C3)[C@H](C)[C@@H](O)CC1=O)[C@H](C)C[C@@H]2OC [31-O-desmethylimmunomycin]
apparent Vmax of DIMT ([3]; 31-O-desmethylimmunomycin variable substrate, 40 uM SAM, Lineweaver-Burk): 45.5 nmol/h/mg

Nc1ncnc2c1ncn2[C@@H]1O[C@H](CSCC[C@H](N)C(=O)O)[C@@H](O)[C@H]1O [S-adenosyl-homocysteine (SAH), S-adenosyl-homocysteine]
inhibition of DIMT activity [3]: major inhibition

Nc1ncnc2c1ncn2[C@@H]1O[C@H](C[C@@H](N)CC[C@H](N)C(=O)O)[C@@H](O)[C@H]1O [sinefungin]
inhibition of DIMT activity [3]: major inhibition

N.N.O=S(=O)(O)O [ammonium sulfate]
inhibition of DIMT activity [3]: inhibited

CC[C@@H]1C=C2COC1(O)C[C@H](O)[C@@H](C)[C@@H](/C(C)=C/[C@@H]1CC[C@@H](O)[C@H](OC)C1)OC(=O)[C@@H]1CCCCN1C(=O)C(=O)[C@]1(O)O[C@H]([C@@H](OC)C[C@@H](C)C2)[C@@H](OC)C[C@H]1C [Compound II]
IC50 [1, 5]: ~6 nM | activity in the T-cell proliferation assay ([1]; result in words): positive inhibition of T-cell activation; also recorded: positive results

CC[C@@H]1/C=C(\C)C[C@H](C)C[C@H](OC)[C@H]2O[C@@](O)(C(=O)C(=O)N3CCCC[C@H]3C(=O)O[C@H](/C(C)=C/[C@@H]3CC[C@@H](O)[C@H](OC)C3)[C@H](C)[C@@H](O)CC1=O)[C@H](C)C[C@@H]2OC [FR-900520, 17-Ethyl-1,14-dihydroxy-12-[2-(4-hydroxy-3-methoxycyclohexyl)-1-methylvinyl]-23-25-dimethoxy-13,19,21,27-tetramethyl-11,28-dioxa-4-azatricyclo [22.3.1.0^4,9]octacos-18-ene-2,3,10,16-tetraone]
IC50 [1, 5]: ~1 nM

CC[C@@H]1C=C2COC1(O)C[C@H](O)[C@@H](C)[C@@H](/C(C)=C/[C@@H]1CC[C@@H](O)[C@H](O)C1)OC(=O)[C@@H]1CCCCN1C(=O)C(=O)[C@]1(O)O[C@H]([C@@H](OC)C[C@@H](C)C2)[C@@H](OC)C[C@H]1C [Compound I]
effect of IL-2 on the inhibition of T-cell proliferation ([1]; 50 units/ml recombinant IL-2 added at the initiation of culture): reversed | inhibition at 0.0025 µM ([1]; Mus musculus, T-lymphocyte, 2.5 nM, splenic T-cells, ionomycin + PMA, 48 hours, read-out: Percent of Inhibition of tritiated thymidine uptake (proliferation)): 0% | inhibition at 0.0049 µM ([1]; Mus musculus, T-lymphocyte, 4.9 nM, splenic T-cells, ionomycin + PMA, 48 hours, read-out: Percent of Inhibition of tritiated thymidine uptake (proliferation)): 0% | inhibition at 0.0099 µM ([1]; Mus musculus, T-lymphocyte, 9.9 nM, splenic T-cells, ionomycin + PMA, 48 hours, read-out: Percent of Inhibition of tritiated thymidine uptake (proliferation)): 39% | inhibition at 0.0197 µM ([1]; Mus musculus, T-lymphocyte, 19.7 nM, splenic T-cells, ionomycin + PMA, 48 hours, read-out: Percent of Inhibition of tritiated thymidine uptake (proliferation)): 65% | inhibition at 0.0394 µM ([1]; Mus musculus, T-lymphocyte, 39.4 nM, splenic T-cells, ionomycin + PMA, 48 hours, read-out: Percent of Inhibition of tritiated thymidine uptake (proliferation)): 89% | inhibition at 0.0788 µM ([1]; Mus musculus, T-lymphocyte, 78.8 nM, splenic T-cells, ionomycin + PMA, 48 hours, read-out: Percent of Inhibition of tritiated thymidine uptake (proliferation)): 95% | inhibition at 0.1576 µM ([1]; Mus musculus, T-lymphocyte, 157.6 nM, splenic T-cells, ionomycin + PMA, 48 hours, read-out: Percent of Inhibition of tritiated thymidine uptake (proliferation)): 98% | inhibition at 0.3152 µM ([1]; Mus musculus, T-lymphocyte, 315.2 nM, splenic T-cells, ionomycin + PMA, 48 hours, read-out: Percent of Inhibition of tritiated thymidine uptake (proliferation)): 98% | IC50 [1, 5]: ~11 nM | IC50 ([1]; Mus musculus, T-lymphocyte, Example 4, table notes, read-out: IC50): 0.0115 µg/mL and 14.5 nM | IC50 ([1]; Mus musculus, T-lymphocyte, generally in the range, read-out: IC50, general range): 10 to 18 nM | Solubility [4]: Solubility in methanol

O=C(O)CN(CCN(CC(=O)O)CC(=O)O)CC(=O)O [EDTA]
inhibition of DIMT activity [3]: completely inhibited; also recorded: major inhibition
